Results on one molecule are retold here after publication PMC4331048 (Molecular and cellular biochemistry, 2011).

In the assay the target is CK2α (Homo sapiens, UniProt P68400). Put plainly: In vitro kinase assay, [γ-32P]ATP phosphorylation of purified CSQ2 by pure CK2α.
Chain of CK2α (P68400 whole entry): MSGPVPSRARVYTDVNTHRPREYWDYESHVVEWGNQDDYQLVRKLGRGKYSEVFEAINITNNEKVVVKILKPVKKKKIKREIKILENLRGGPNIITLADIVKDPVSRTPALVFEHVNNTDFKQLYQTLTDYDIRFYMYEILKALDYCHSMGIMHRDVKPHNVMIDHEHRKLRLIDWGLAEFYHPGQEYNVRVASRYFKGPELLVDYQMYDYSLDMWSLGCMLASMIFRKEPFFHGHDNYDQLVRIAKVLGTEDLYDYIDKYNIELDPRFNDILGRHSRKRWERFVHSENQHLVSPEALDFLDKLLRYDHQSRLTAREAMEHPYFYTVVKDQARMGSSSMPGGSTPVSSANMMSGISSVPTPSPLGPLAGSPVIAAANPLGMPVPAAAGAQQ

Molecule `O=C(O)/C=C/c1cc(Br)c(Br)c(Br)c1Br` [TBCA] had an IC50 of around 10 µM.

The term IC50 denotes the concentration needed to halve the response being measured.
